Data: patent US20210369583A1, “COMPOSITIONS FOR PROVIDING SKIN CARE BENEFITS AND METHODS OF USE” (Danisco US Inc., priority 2018, published 2021)

Key:
Format in all cases: cell-based
HO-1 (Heme-Oxygenase-1) = experiment: Immunostaining of HO-1 in human skin explants, image analysis
Procedure: (§1) 59 human skin explants of an average diameter of 14 mm (±1 mm) were prepared on an abdoplasty coming from a person. The explants were kept in survival in BEM culture medium at 37° C. in a humid, 5%-CO2 atmosphere.
(§2) The tested products were topically applied on the basis of 2 μl per cm^2 and spread using a small spatula twice a day (morning and evening) on day 0, 1, 2, 3 and 4.
(§3) On D4, the explants of the batches ML and PML were placed on the 3D grid with 900 μl of HBSS and placed into the PolluBox® system.
(§4) 3 mL of the solution <<ML>> (supplemented with 150 μl/ml of NaCl 0.9%) were exposed by vaporization for 1 hour and half, as shown in the figure below.
Heme-Oxygenase is a phase II skin anti-oxidant enzyme which generates cell anti-oxidant molecules. […] The immunostaining was performed using an automated slide processing system (Autostainer, Dako) and assessed by microscopical observation. […]
The images analyses were performed on all the images (9 to 12 images) of each batch using the CellD storing software (Olympus Microscopy, Matrix Optics (M)SdnBhd, Taman Mayhang, Maylasia). For each batch of explants, the percentage of the region of interest covered by the staining (stained surface percentage) was determined by image analysis. […]
Analyzed batches: T, P2, ML, P2ML (4 batches, 3 explants/batch, so 12 explants at day 5 referred to as TJ5, P2J5, MLJ5, P2MLJ5.

[1] = tested on: human living skin explant; experiment: Cell viability of human living skin explants (UV study); conditions: day 4
Procedure: human skin explants of an average diameter of 12 mm (±1 mm) were prepared on an abdoplasty coming from a person). The explants were kept in survival in BEM culture medium at 37° C. in a humid, 5%-CO2 atmosphere.
On day 0 (D0), day 1, day 2 and day 3 (3 hours before irradiation), the tested products were applied topically on surface of skin explants at the rate of 2 mg/cm^2, twice a day for D1 and D2 and once on DO and D3. […] The medium was half renewed (1 ml per well) on day 2.
On D3, the culture media of all the batches was replaced by HBSS solution (Hank's Balanced Saline Solution; 1 ml per explant). The batches “UV” were irradiated by UVA+ UVB using a UV simulator Vibert Lourmat RMX 3W with a dose of 18 J/cm2 of UVA (4 MED, minimal erythemal dose) and 0.3 J/cm2 of UVB (2 MED). The unirradiated batches were kept in HBSS in the dark. At the end of the irradiation the explants were put back in 2 mL of BEM medium.
After fixation for 24 hours in buffered formalin, the samples were dehydrated and impregnated in paraffin using a Leica PEARL dehydration automat. The samples were embedded using a Leica EG 1160 embedding station. 5-μm-thick sections were made using a Leica RM 2125 Minot-type microtome, and the sections were mounted on Superfrost® histological glass slides. The frozen samples were cut into 7-μm-thick sections using a Leica CM 3050 cryostat. Sections were then mounted on Superfrost® plus silanized glass slides. The microscopical observations were realized using a Leica DMLB or Olympus BX43 microscope. Pictures were digitized with a numeric DP72 Olympus camera with CellD storing software.

[2] = tested on: living human skin explants; experiment: Biochemical assay of MDA (lipid peroxidation) on living human skin explants exposed to pollutants
Procedure: Product A (Table 11) was diluted in water to obtain the following products at concentrations: product P1=A at 4%, product P2=A at 2% and product P3=A at 1%.
as §1, §2, §3, §4
The MDA assay was realized with an enhanced method of the TBARs (Thiobarbituric Acid Reactive Species) assay. The MDA was assayed in HBSS medium by addition of TBARs solution (thiobarbituric acid, hydrochloric acid and tricholoroacetic acid) and placed in a water bath (80° C. for 15 minutes). A lot of substances (like glucose) which are not related with lipoperoxidation, react with thiobarbituric acid (ThioBarbituric Acid Reagents=TBARS), so to enhance the specificity of the assay, the MDA was extracted by a liquid/liquid extraction with butanol. The MDA in butanol was measured in spectrofluorimetry (excitation: 515 nm, emission: 550 nm) using a Tecan Infinite M200 Pro microplate reader. Using this assay, MDA contained in the culture medium BEMc on […] was measured for the 4 explants per batch. The MDA concentration was expressed in pmol of MDA/ml of the medium. Concerned batches: all batches on day 5, 4 explants per batch.
The average of the blank batch TJ5 was calculated (154.0 nmol/L). Then, for each explant of MLJ5, this average value was subtracted from […]. That corresponds to calculating the delta (increase) of MDA induced by ML for each explant compared to the average of the batch without ML, it is ΔML.
These average deltas were then compared to the average delta of MDA induction without treatment (ΔML).

O=C(O)[C@@H]1CCCN1 [Combination P4, L-Proline]
effect on pollutant-induced HO-1 (HO-1 (Heme-Oxygenase-1); after pollutants exposure): strongly reduced the effect of the pollutants | effect on HO-1 expression (HO-1 (Heme-Oxygenase-1); without pollutants, D5): does not seem to affect the HO-1 expression | Cell Viability, variation vs TUVJ4 ([1]; UV irradiated): ↔ (indicates no variation) | Cell Viability, variation vs TJ4 ([1]; non irradiated): ↔ (indicates no variation) | MDA, variation ΔPML vs ΔML ([2]; MDA induction by pollutants, day 5): −34% #^ | reduction of the increase of MDA ([2]; after pollutant exposure (ΔPML vs ΔML)): 34% | MDA, variation PML vs ML ([2]; after pollutants exposure, day 5): −10% ns
